Assay results taken from PMC3344384 (Chemistry & biology, 2011).

Key:
USP1 alone = target: T1, USP1 alone (Homo sapiens, UniProt O94782); assay: Ub-Rho assay, USP1 alone; format: biochemical; settings: Ub-Rho substrate, absence of UAF1 subunit
T1 sequence (O94782 1-785): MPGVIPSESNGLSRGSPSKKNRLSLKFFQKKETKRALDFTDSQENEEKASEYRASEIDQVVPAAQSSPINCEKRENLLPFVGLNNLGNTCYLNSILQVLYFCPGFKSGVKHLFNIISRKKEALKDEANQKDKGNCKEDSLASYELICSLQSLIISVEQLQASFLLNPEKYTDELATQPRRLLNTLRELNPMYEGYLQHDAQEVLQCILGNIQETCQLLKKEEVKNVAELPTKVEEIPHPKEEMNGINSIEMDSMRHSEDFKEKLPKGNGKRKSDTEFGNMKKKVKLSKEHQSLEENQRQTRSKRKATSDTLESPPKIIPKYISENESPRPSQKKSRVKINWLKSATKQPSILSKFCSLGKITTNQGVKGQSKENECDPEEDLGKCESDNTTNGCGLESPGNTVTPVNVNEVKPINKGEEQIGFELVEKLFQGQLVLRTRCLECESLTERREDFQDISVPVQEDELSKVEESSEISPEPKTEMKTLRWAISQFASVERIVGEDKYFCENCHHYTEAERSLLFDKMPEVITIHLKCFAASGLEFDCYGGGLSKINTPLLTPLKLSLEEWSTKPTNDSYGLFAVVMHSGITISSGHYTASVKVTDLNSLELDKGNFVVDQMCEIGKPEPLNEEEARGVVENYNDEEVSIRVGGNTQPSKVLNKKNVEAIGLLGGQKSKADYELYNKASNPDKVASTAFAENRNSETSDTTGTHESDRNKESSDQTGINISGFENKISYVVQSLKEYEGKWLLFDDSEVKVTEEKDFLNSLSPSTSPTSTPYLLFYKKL

UCH-L1 = target: T2, UCH-L1 (Homo sapiens, UniProt P09936); assay: Ub-Rho assay, UCH-L1; format: biochemical
T2 sequence (P09936 1-223): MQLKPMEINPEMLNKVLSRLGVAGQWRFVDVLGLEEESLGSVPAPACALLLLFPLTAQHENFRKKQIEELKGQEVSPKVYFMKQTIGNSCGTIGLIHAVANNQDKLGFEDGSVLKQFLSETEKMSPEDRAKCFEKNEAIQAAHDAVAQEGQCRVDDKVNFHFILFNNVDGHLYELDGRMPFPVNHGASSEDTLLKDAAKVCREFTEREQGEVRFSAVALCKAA

caspase-6 = target: T3, caspase-6 (Homo sapiens, UniProt P55212); assay: cysteine protease selectivity, caspase-6; format: biochemical
T3 sequence (P55212 24-179 limits assumed): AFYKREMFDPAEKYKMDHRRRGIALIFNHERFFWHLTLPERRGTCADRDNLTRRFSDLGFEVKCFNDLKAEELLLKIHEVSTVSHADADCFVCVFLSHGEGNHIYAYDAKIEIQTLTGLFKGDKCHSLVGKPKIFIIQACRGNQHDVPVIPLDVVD
T3 sequence (P55212 194-293 limits assumed): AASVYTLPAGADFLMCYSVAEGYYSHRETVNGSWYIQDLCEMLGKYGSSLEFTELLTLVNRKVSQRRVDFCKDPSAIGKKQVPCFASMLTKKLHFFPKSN

USP2 = target: T4, USP2 (Homo sapiens, UniProt O75604); assay: K63-linked diubiquitin cleavage assay, USP2; settings: for IC50 USP2: NI = no significant inhibition at 114 μM
T4 sequence (O75604 1-605): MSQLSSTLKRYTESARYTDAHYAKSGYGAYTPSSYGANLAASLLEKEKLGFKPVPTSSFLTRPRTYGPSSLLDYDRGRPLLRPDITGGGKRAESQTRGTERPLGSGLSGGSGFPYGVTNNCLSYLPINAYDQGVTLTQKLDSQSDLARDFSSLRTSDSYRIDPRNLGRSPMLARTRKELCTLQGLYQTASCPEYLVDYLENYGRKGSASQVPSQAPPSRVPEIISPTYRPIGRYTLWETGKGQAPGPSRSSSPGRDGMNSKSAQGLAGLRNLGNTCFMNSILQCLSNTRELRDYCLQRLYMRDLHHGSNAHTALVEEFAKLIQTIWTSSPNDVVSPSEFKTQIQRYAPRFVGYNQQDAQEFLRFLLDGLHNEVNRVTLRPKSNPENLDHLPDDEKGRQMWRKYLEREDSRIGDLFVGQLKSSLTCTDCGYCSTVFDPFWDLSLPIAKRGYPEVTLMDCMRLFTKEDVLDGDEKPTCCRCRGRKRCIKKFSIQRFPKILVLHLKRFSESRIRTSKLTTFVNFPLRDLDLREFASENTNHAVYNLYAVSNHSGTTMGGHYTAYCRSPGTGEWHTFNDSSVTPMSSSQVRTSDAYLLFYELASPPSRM

USP5 = target: T5, USP5 (Homo sapiens, UniProt P45974); assay: K63-linked diubiquitin cleavage assay, USP5; settings: K63-linked diubiquitin substrate; NI = no significant inhibition at 114 μM
T5 sequence (P45974 1-858): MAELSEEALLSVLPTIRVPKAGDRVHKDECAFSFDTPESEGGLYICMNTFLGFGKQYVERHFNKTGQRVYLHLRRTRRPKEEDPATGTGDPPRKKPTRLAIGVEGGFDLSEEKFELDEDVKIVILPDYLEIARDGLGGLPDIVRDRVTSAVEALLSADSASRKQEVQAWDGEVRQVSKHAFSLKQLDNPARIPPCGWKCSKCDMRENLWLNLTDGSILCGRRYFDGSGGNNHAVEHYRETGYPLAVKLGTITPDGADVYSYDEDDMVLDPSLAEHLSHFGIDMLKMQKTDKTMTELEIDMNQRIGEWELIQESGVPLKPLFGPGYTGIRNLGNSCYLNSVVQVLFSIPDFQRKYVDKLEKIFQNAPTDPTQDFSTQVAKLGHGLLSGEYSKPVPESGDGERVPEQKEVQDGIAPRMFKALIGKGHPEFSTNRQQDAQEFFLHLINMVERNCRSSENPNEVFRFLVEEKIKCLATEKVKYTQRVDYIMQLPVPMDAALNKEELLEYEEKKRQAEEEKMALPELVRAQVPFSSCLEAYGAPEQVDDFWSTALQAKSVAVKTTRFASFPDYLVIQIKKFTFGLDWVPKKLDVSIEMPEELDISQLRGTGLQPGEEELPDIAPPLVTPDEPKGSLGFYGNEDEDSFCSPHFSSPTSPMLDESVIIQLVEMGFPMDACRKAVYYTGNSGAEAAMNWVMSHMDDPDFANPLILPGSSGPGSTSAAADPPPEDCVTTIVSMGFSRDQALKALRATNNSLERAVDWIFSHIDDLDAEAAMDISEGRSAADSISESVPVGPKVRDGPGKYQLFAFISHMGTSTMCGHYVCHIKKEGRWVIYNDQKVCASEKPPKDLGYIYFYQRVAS

[1] = K63-linked diubiquitin substrate

**Q.** Which results are given for `OCCN1CCN(CCC=C2c3ccccc3Sc3ccc(C(F)(F)F)cc32)CC1` [Flupenthixol, flupenthixol]?
**A.** inhibition of USP1 alone (USP1 alone): low level of inhibition; IC50 (UCH-L1): > 500 µM; IC50 (caspase-6): > 250 µM; IC50 USP2 (USP2; [1]): no inhibition; IC50 USP5 (USP5): no inhibition

**Q.** `O=c1[nH]c2ccccc2n1C1CCN(CCCC(c2ccc(F)cc2)c2ccc(F)cc2)CC1` [Pimozide, pimozide] was tested. Which “inhibition of USP1 alone” value (USP1 alone) did it give?
**A.** low level of inhibition

**Q.** What about the IC50 (UCH-L1) of the same compound?
**A.** > 500 µM

**Q.** What about the IC50 (caspase-6) of the same compound?
**A.** > 250 µM

**Q.** What about the “IC50 USP2” value (USP2; [1]) of the same compound?
**A.** No inhibition

**Q.** What about the “IC50 USP5” value (USP5) of the same compound?
**A.** No inhibition

**Q.** For `CC(C)(Sc1ccc(CCN(CCCCC2CCCCC2)C(=O)NC2CCCCC2)cc1)C(=O)O` [GW7647], which “inhibition of USP1 alone” value (USP1 alone) is on record?
**A.** low level of inhibition

**Q.** And the IC50 (UCH-L1)?
**A.** > 200 µM

**Q.** What about the IC50 (caspase-6) of the same compound?
**A.** 21 µM

**Q.** What about the IC50 (USP2) of the same compound?
**A.** > 114 µM

**Q.** What about the “IC50 for USP2, fold higher than that for USP1/UAF1” value (USP2; [1]) of the same compound?
**A.** more than 23 fold

**Q.** What about the “IC50 USP5” value (USP5) of the same compound?
**A.** did not inhibit

**Q.** With `CN1CCN(CCCN2c3ccccc3Sc3ccc(C(F)(F)F)cc32)CC1` [Trifluoperazine, trifluoperazine] as the compound, how does the “inhibition of USP1 alone” value (USP1 alone) read?
**A.** low level of inhibition

**Q.** What about the IC50 (UCH-L1) of the same compound?
**A.** > 500 µM

**Q.** What about the IC50 (caspase-6) of the same compound?
**A.** > 250 µM

**Q.** What about the “IC50 USP2” value (USP2; [1]) of the same compound?
**A.** no inhibition

**Q.** What about the “IC50 USP5” value (USP5) of the same compound?
**A.** no inhibition
